Laboratory results as given in patent publication US9359452B2, “Isolation and characterisation of heparan sulphates and their use in pharmaceutical compositions, methods of treatment and stem cell culture media suitable for conditions associated with bone repair” (Agency for Science, Technology and Research, priority 2009, dated 2016).
Entries after “also recorded” stand apart in the source; their conditions may differ.

Key:
[1] = tested on: human mesenchymal stem cells (hMSC); test: hMSC proliferation, viable cell count (GUAVA Viacount) in maintenance medium; type: cell-based; conditions: normal growth medium; data not shown
Description: (§1) Human mesenchymal stem cells (hMSCs) (Cambrex, USA) were plated in maintenance medium consisting of DMEM (1000 mg/L glucose), 10% fetal calf serum (FCS), 2 mM L-glutamine and 100 U/ml penicillin-streptomycin sulfate at 37° C. in a humidified atmosphere with 5% CO2. To assess their proliferation, assays were performed to determine cell number utilizing the GUAVA PCA-96 System (GUAVA Technologies) as per the manufacturer's instructions. Briefly, cells were seeded at 3,000 cells/cm^2 in 48-well plates and allowed to adhere overnight. […] Proliferation of cells was assessed by Guava viacount on 1, 3, 5 and 7 day to determine the total viable cells. Cells were washed in PBS, pelleted with 0.125% trypsin, the trypsin neutralized, the pellet resuspended in 400 μl of PBS with the addition of 4 μl of Flex reagent, incubated for 10 min and cell number and viability determined utilizing the GUAVA Viacount software.
Human mesenchymal stem cells (hMSCs) were plated in maintenance medium consisting of DMEM (1000 mg/L glucose), 10% fetal calf serum (FCS), 2 mM L-glutamine and 100 U/ml penicillin-streptomycin sulfate at 37° C. in a humidified atmosphere with 5% CO2. To assess their proliferation, assays were performed to determine cell number utilizing the GUAVA PCA-96 System (Millipore, USA) as per the manufacturer's instructions.
Briefly, cells were seeded at 3,000 cells/cm^2 in 48-well plates and allowed to adhere overnight. […] Proliferation of cells was assessed on days 1, 3, 5 and 7 to determine total viable cells. Cells were washed in PBS, pelleted with 0.125% trypsin, the trypsin neutralized, the pellet resuspended in 400 μl of PBS with the addition of 4 μl of Flex reagent, incubated for 10 min and cell number and viability determined utilizing the GUAVA Viacount software.

[2] = tested on: human mesenchymal stem cells (hMSC); test: hMSC proliferation, viable cell count in osteogenic medium; type: cell-based; conditions: data not shown
Description: (§2) FIG. 5. Effect of male and female liver HS on the growth of hMSC in maintenance and osteogenic medium. Cells were cultured for 7 days in normal maintenance medium in the presence of different concentrations (12.5 μg/ml or 1.25 μg/ml or 625 ng/ml or 312 ng/ml or 156 ng/ml) of male liver HS (A), and female liver HS (B). Cells were cultured for 7 days in osteogenic medium in the presence of different concentrations (12.5 μg/ml or 625 ng/ml or 312 ng/ml) of male liver HS (C), and female liver HS (D). Viable cell counts were determined at day 1, 3, 5 and 7. (E) The importance of FGFR signaling for HS activity was investigated by supplementing serum starved sub confluence cultures with male or female. HS (2.5 μg/ml) or FGF2 (2.5 ng/ml) in the presence or absence of an FGFR1 inhibitor (SU5402 at 20 μM) for 60 min. Total protein was extracted for Western blotting and first probed for activated ERK1/2 expression (pERK1/2). Membranes were then striped and reprobed with anti ERK1/2 antibody. (F) The amount of pERK1/2 protein was determined by densitometry. […]
as §1, with “CO2.” for “CO2. To assess their proliferation, assays were performed to determine cell number utilizing the GUAVA PCA-96 System (GUAVA Technologies) as per the manufacturer's instructions. Briefly, cells were seeded at 3,000 cells/cm^2 in 48-well plates and allowed to adhere overnight.”
To assess the possibility of structural differences identified between the male and female liver HS to modulate hMSC proliferation, hMSCs were treated with varying concentration of HS and viable cell number was counted over a 7-day culture period in normal maintenance or differentiation (osteogenic) medium.

ERK1/2 = ERK1/2 phosphorylation in serum-starved hMSC (Western blot); type: cell-based, human; conditions: SU5402 at 20 μM, 60 min, with male or female HS 2.5 μg/ml
Description: as §2
MSCs were seeded in designated media at 5,000/cm^2 in six-well plates and cultured until subconfluent. […] Protein content was determined using a Protein Assay Kit (Bio-Rad) following the manufacturer's instructions. […]

hMSCs = test: hMSC proliferation with or without FGFR1 inhibitor SU5402, 5 days; type: cell-based, human
[3] = tested on: Bovine aortic smooth muscle cells (BASMC); conditions: literature (Yang et al); cited from earlier work

| Compound | hMSC proliferation compared to 10% serum [1] | effect on hMSC proliferation [2] | effect on BASMC mineralization [3] | further results |
| --- | --- | --- | --- | --- |
| 2-de-O-sulfated heparin | less effect on proliferation | no effect; also recorded: neither de-N-sulfated, 2-de-O-sulfated nor 6-de-O-sulfated heparin had any effect | – | – |
| 6-de-O-sulfated heparin | less effect on proliferation | no effect; also recorded: neither de-N-sulfated, 2-de-O-sulfated nor 6-de-O-sulfated heparin had any effect | – | – |
| Cc1c[nH]c(/C=C2\C(=O)Nc3ccccc32)c1CCC(=O)O [SU5402] | – | – | – | effect on liver HS-stimulated ERK1/2 phosphorylation (ERK1/2): blocked; effect on basal growth of hMSCs (hMSCs; SU5402 at 20 μM): inhibitory effect; effect on HS and FGF2 induced proliferation (hMSCs; SU5402 at 20 μM, male HS 2.5 μg/ml or FGF2 2.5 ng/ml): preventing HS and FGF2 induced proliferation |
| FGF2 | – | – | – | effect on hMSC proliferation (hMSCs; FGF2 2.5 ng/ml): induced proliferation |
| N-desulfated heparin | – | – | no inhibition; also recorded: no inhibitory activity | – |
| de-N-sulfated heparin | does not increase hMSC proliferation; also recorded: failed to improve hMSC proliferation | no effect; also recorded: neither de-N-sulfated, 2-de-O-sulfated nor 6-de-O-sulfated heparin had any effect | – | – |
| dermatan sulfate | – | – | no inhibition; also recorded: no inhibitory activity | – |
| heparin [highly sulfated heparin] | – | – | inhibited | – |
